For 17 molecules, IC50 results are on record in patent publication US8614201B2 (Janssen Pharmaceutica NV, priority 2009, dated 2013).

One may read the IC50 as the concentration that gives 50% inhibition.

Sequence of Human TRPA1 (O75762 whole entry): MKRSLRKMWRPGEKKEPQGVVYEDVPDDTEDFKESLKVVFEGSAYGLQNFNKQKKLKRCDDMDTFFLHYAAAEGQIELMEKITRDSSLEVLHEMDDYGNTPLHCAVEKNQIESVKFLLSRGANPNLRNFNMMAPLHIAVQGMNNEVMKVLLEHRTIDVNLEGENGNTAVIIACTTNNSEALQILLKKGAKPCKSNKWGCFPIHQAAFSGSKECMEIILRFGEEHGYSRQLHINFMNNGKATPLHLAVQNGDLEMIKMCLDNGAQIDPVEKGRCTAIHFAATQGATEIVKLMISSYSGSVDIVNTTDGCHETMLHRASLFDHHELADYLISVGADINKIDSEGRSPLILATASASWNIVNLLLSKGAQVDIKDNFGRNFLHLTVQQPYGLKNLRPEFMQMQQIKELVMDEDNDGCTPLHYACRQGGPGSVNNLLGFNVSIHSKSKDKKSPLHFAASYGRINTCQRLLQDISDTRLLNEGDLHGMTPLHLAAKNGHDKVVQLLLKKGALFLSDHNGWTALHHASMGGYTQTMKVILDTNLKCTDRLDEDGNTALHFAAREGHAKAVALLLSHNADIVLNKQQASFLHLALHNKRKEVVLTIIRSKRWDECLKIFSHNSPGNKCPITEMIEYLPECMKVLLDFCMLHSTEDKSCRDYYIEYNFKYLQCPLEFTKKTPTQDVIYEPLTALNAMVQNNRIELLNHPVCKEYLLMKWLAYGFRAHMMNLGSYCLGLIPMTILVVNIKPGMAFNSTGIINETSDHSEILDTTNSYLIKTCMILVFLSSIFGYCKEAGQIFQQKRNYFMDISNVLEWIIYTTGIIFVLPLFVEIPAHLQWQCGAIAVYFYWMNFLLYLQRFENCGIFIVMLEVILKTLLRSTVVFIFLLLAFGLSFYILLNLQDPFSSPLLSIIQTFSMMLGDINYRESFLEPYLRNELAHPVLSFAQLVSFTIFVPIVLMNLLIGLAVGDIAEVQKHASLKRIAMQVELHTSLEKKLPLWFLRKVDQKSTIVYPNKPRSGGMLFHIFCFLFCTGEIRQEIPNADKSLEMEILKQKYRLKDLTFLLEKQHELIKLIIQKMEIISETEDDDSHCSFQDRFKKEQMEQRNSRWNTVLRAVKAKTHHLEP

The assay addresses Human TRPA1 (Homo sapiens, UniProt O75762). Nature of the assay: Assay 1: In vitro cellular testing of TRPA1 modulation (CHO-TREx, Fluo-3 calcium fluorescence, AITC agonist). The format is cell-based. The arrangement: expressed in transfected cells; host or cells: CHO-TREx cells (Invitrogen), vector pcDNA4/TO. As to conditions: CHO-TREx cells expressing human TRPA1; Fluo-3 fluorescence (FLIPR/Tetra); agonist 15 μM allyl isothiocyanate (AITC); 30 minute antagonist incubation. The procedure:
Assay 1: In Vitro Cellular Testing of TRPA1 Modulation
Human TRPA1 (NCBI accession number NM_007332.1) was cloned into pcDNA4/TO. CHO-TREx cells (Invitrogen, Carlsbad, Calif.) were stably transfected with pcDNA4/TO-TRPA1 using lipofection to generate a clonal cell line that expressed human TRPA1 in a tetracycline-inducible manner. Culture medium used was Ham's F-12 supplemented with 10% fetal bovine serum, 2 mM L-glutamine, 5 μg/ml blasticidin and 200 μg/ml zeocin. Cells were seeded in black-walled clear-bottom 96-well plates at a density of 50,000 cells per well and cultured overnight at 37° C. with 5% CO2 in culture medium supplemented with 1 μg/ml tetracycline. On the day of the experiment, cells were washed 3 times with HEPES buffered saline (in mM: NaCl 137, MgCl2 0.5, KCl 2, dextrose 5, CaCl2 2 and HEPES 10; pH 7.4). Cells were then loaded with calcium-sensitive fluorescent dye by incubation in the presence of 4 μM Fluo-3 AM (TefLabs, Austin, Tex.) at room temperature in the dark for 60 minutes. After incubation with dye, cells were washed in assay buffer and, if appropriate, antagonists were added at this time. Following a further 30 minute incubation, cells were assayed using a Fluorometric Imaging Plate Reader (FLIPR™) or a Tetra (both manufactured by Molecular Devices, CA) to simultaneously monitor Fluo-3 fluorescence in all wells (λexcitation=488 nm, λemission=540 nm). Changes in fluorescence were monitored for 3 minutes after the addition of 15 μM allyl isothiocyanate (AITC) as an agonist. Concentration-dependence of receptor blocking was determined by exposing each well of cells in duplicate rows of a 96-well plate to a serial dilution of test compound. The concentration series usually started at 10 μM with a three-fold serial decrement in concentration. The magnitude of the response to agonist challenge was determined by measuring the fluorescence before and 3 minutes after the addition of the agonist. The degree of blocking was determined by comparing the response to that of negative (no added antagonist) and positive (10 μM ruthenium red) control wells. Data were analyzed using a non-linear regression program (Origin; OriginLab, MA) to fit the concentration-response data to a Hill function. Antagonist potencies were determined as the concentration required to produce 50% reduction in the response as compared to the negative and positive controls.
For `CN1CCC(CN2CCN(c3nc(CNC(=O)[C@@H]4CCCN4S(=O)(=O)c4ccc(F)cc4)cc(-c4ccc(C(F)(F)F)cc4)n3)CC2)CC1` [Example 20, 1-(4-Fluoro-benzenesulfonyl)-pyrrolidine-2S-carboxylic acid [2-[4-(1-methyl-piperidin-4-ylmethyl)-piperazin-1-yl]-6-(4-trifluoromethyl-phenyl)-pyrimidin-4-ylmethyl]-amide], the IC50 was determined as 2050 nM.

On to `O=C(NCc1cc(-c2ccc(C(F)(F)F)cc2)nc(N2CCN(Cc3ccncc3)CC2)n1)[C@@H]1CCCN1S(=O)(=O)c1ccc(F)cc1` [Example 21, 1-(4-Fluoro-benzenesulfonyl)-pyrrolidine-2S-carboxylic acid [2-(4-pyridin-4-ylmethyl-piperazin-1-yl)-6-(4-trifluoromethyl-phenyl)-pyrimidin-4-ylmethyl]-amide], for which the IC50 was found to be 24 nM.

As for `O=C(NCc1cc(-c2ccc(C(F)(F)F)cc2)nc(N2CCN(Cc3ccccn3)CC2)n1)[C@@H]1CCCN1S(=O)(=O)c1ccc(F)cc1` [Example 22, 1-(4-Fluoro-benzenesulfonyl)-pyrrolidine-2S-carboxylic acid [2-(4-pyridin-2-ylmethyl-piperazin-1-yl)-6-(4-trifluoromethyl-phenyl)-pyrimidin-4-ylmethyl]-amide], the IC50 was found to be 130 nM.

Consider `O=C(NCc1cc(-c2ccc(C(F)(F)F)cc2)nc(N2CCNCC2)n1)[C@@H]1CCCN1S(=O)(=O)c1ccc(F)cc1` [Example 23, 1-(4-Fluoro-benzenesulfonyl)-pyrrolidine-2S-carboxylic acid [2-piperazin-1-yl-6-(4-trifluoromethyl-phenyl)-pyrimidin-4-ylmethyl]-amide], for which the IC50 is 4420 nM.

For `CC(C)CN1CCN(c2nc(CNC(=O)[C@@H]3CCCN3S(=O)(=O)c3ccc(Cl)s3)cc(-c3ccc(C(F)(F)F)cc3)n2)CC1` [Example 24, 1-(5-Chloro-thiophene-2-sulfonyl)-pyrrolidine-2S-carboxylic acid [2-(4-isobutyl-piperazin-1-yl)-6-(4-trifluoromethyl-phenyl)-pyrimidin-4-ylmethyl]-amide], the IC50 amounted to 24 nM.

`CC1CCCN1c1nc(CNC(=O)[C@@H]2CCCN2S(=O)(=O)c2ccc(F)cc2)cc(-c2ccc(C(F)(F)F)cc2)n1` (stereo partly drawn) [Example 25, 1-(4-Fluoro-benzenesulfonyl)-pyrrolidine-2S-carboxylic acid [2-(2-methyl-pyrrolidin-1-yl)-6-(4-trifluoromethyl-phenyl)-pyrimidin-4-ylmethyl]-amide]: the IC50 is 63 nM.

Consider `C[C@H]1CCCN1c1nc(CNC(=O)[C@@H]2CCCN2S(=O)(=O)c2ccc(F)cc2)cc(-c2ccc(C(F)(F)F)cc2)n1` [Example 26, 1-(4-Fluoro-benzenesulfonyl)-pyrrolidine-2S-carboxylic acid [2-(2S-methyl-pyrrolidin-1-yl)-6-(4-trifluoromethyl-phenyl)-pyrimidin-4-ylmethyl]-amide], for which the IC50 worked out at 13 nM.

`C[C@@H]1CCCN1c1nc(CNC(=O)[C@@H]2CCCN2S(=O)(=O)c2ccc(F)cc2)cc(-c2ccc(C(F)(F)F)cc2)n1` [Example 27, 1-(4-Fluoro-benzenesulfonyl)-pyrrolidine-2S-carboxylic acid [2-(2R-methyl-pyrrolidin-1-yl)-6-(4-trifluoromethyl-phenyl)-pyrimidin-4-ylmethyl]-amide]: the IC50 is 16 nM.

`CNc1nc(CNC(=O)[C@@H]2CCCN2S(=O)(=O)c2ccc(Cl)s2)cc(-c2ccc(C(F)(F)F)cc2)n1` [Example 28, 1-(5-Chloro-thiophene-2-sulfonyl)-pyrrolidine-2S-carboxylic acid [2-methylamino-6-(4-trifluoromethyl-phenyl)-pyrimidin-4-ylmethyl]-amide]: the IC50 came out at 81 nM.

Turning to `CN(C)c1nc(CNC(=O)[C@@H]2CCCN2S(=O)(=O)c2ccc(Cl)s2)cc(-c2ccc(C(F)(F)F)cc2)n1` [Example 29, 1-(5-Chloro-thiophene-2-sulfonyl)-pyrrolidine-2S-carboxylic acid [2-dimethylamino-6-(4-trifluoromethyl-phenyl)-pyrimidin-4-ylmethyl]-amide], the IC50 turned out to be 12 nM.

Regarding `C[C@@H]1CCCN1c1nc(CNC(=O)[C@@H]2CCCN2S(=O)(=O)c2ccc(Cl)s2)cc(-c2ccc(C(F)(F)F)cc2)n1` [Example 30, 1-(5-Chloro-thiophene-2-sulfonyl)-pyrrolidine-2(S)-carboxylic acid [2-(2R-methyl-pyrrolidin-1-yl)-6-(4-trifluoromethyl-phenyl)-pyrimidin-4-ylmethyl]-amide], the IC50 was determined as 13 nM.

As for `C[C@H]1CCCN1c1nc(CNC(=O)[C@@H]2CCCN2S(=O)(=O)c2ccc(Cl)s2)cc(-c2ccc(C(F)(F)F)cc2)n1` [Example 31, 1-(5-Chloro-thiophene-2-sulfonyl)-pyrrolidine-2S-carboxylic acid [2-(2S-methyl-pyrrolidin-1-yl)-6-(4-trifluoromethyl-phenyl)-pyrimidin-4-ylmethyl]-amide], the IC50 came out at 9 nM.

In the case of `CN(C)[C@@H]1CCN(c2nc(CNC(=O)[C@@H]3CCCN3S(=O)(=O)c3ccc(Cl)s3)cc(-c3ccc(C(F)(F)F)cc3)n2)C1` [Example 32, 1-(5-Chloro-thiophene-2-sulfonyl)-pyrrolidine-2S-carboxylic acid [2-(3R-dimethylamino-pyrrolidin-1-yl)-6-(4-trifluoromethyl-phenyl)-pyrimidin-4-ylmethyl]-amide], the IC50 was 1020 nM.

In the case of `CN(C)[C@H]1CCN(c2nc(CNC(=O)[C@@H]3CCCN3S(=O)(=O)c3ccc(Cl)s3)cc(-c3ccc(C(F)(F)F)cc3)n2)C1` [Example 33, 1-(5-Chloro-thiophene-2-sulfonyl)-pyrrolidine-2S-carboxylic acid [2-(3S-dimethylamino-pyrrolidin-1-yl)-6-(4-trifluoromethyl-phenyl)-pyrimidin-4-ylmethyl]-amide], the IC50 came out at 469 nM.

As for `CC(C)(C)OC(=O)N[C@H]1CCN(c2nc(CNC(=O)[C@@H]3CCCN3S(=O)(=O)c3ccc(Cl)s3)cc(-c3ccc(C(F)(F)F)cc3)n2)C1` [Example 34, {1-[4-({[1-(5-Chloro-thiophene-2-sulfonyl)-pyrrolidine-2S-carbonyl]-amino}-methyl)-6-(4-trifluoromethyl-phenyl)-pyrimidin-2-yl]-pyrrolidin-3S-yl}-carbamic acid tert-butyl ester], the IC50 stood at 32 nM.

For `CC(C)(C)OC(=O)N[C@@H]1CCN(c2nc(CNC(=O)[C@@H]3CCCN3S(=O)(=O)c3ccc(Cl)s3)cc(-c3ccc(C(F)(F)F)cc3)n2)C1` [Example 35, {1-[4-({[1-(5-Chloro-thiophene-2-sulfonyl)-pyrrolidine-2S-carbonyl]-amino}-methyl)-6-(4-trifluoromethyl-phenyl)-pyrimidin-2-yl]-pyrrolidin-3R-yl}-carbamic acid tert-butyl ester], the IC50 turned out to be 83 nM.

For the molecule `C[C@H](Nc1nc(CNC(=O)[C@@H]2CCCN2S(=O)(=O)c2ccc(Cl)s2)cc(-c2ccc(C(F)(F)F)cc2)n1)c1ccccn1` [Example 36, 1-(5-Chloro-thiophene-2-sulfonyl)-pyrrolidine-2S-carboxylic acid [2-(1-pyridin-2-yl-ethylamino)-6-(4-trifluoromethyl-phenyl)-pyrimidin-4S-ylmethyl]-amide], the IC50 amounted to 39 nM.
